Patent US20240148821A1, “PHARMACEUTICAL USE OF CYCLIC PEPTIDE COMPOUND” (CHUGAI SEIYAKU KABUSHIKI KAISHA, priority 2021, published 2024)
Numbered stars: 1 amine (or outer) side, 2 acyl side, 3 side chain; on linkers, the order of the positions; unused ones are H or OH. Bridge positions count the residues as written; N and C are the ends. Square brackets hold non-standard residues; d marks the D form. Peptide text beside a SMILES is read from it. * marks the point of attachment. hPhe(3-Cl-4-CF3) = N[C@@H](CCc1ccc(C(F)(F)F)c(Cl)c1)C(=O)O; hPhe(3-F,4-CF3) = N[C@@H](CCc1ccc(C(F)(F)F)c(F)c1)C(=O)O; NMePhe(4-CF3) = CN[C@@H](Cc1ccc(C(F)(F)F)cc1)C(=O)O; NMeAla(4-thiazolyl) = CN[C@@H](Cc1cscn1)C(=O)O; NMePhe(3-CN) = CN[C@@H](Cc1cccc(C#N)c1)C(=O)O; NMeAbu(4,4,4-F3) = CN[C@@H](CC(F)(F)F)C(=O)O; NMePhe(4-Cl) = CN[C@@H](Cc1ccc(Cl)cc1)C(=O)O; NMePhe(4-Me) = CN[C@@H](Cc1ccc(C)cc1)C(=O)O; NMedβ3hAla = C[C@H](CC(=O)[*:2])N(C)[*:1]; NMeAla(cPent) = CN[C@@H](CC1CCCC1)C(=O)O; NMeGly(cPent) = CN[C@H](C(=O)O)C1CCCC1; NMeCha = CN[C@@H](CC1CCCCC1)C(=O)O; NMeChg = CN[C@H](C(=O)O)C1CCCCC1; NMeF = CN[C@@H](Cc1ccccc1)C(=O)O; NMeI = CC[C@H](C)[C@H](NC)C(=O)O; Cha = N[C@@H](CC1CCCCC1)C(=O)O; NMeD = CN[C@@H](CC(=O)O)C(=O)O; CH2CONHtBu = CC(C)(C)NC(=O)C*; NMeL = CN[C@@H](CC(C)C)C(=O)O; NMeV = CN[C@H](C(=O)O)C(C)C; d(β3hA) = C[C@@H](N)CC(=O)O; NMeS = CN[C@@H](CO)C(=O)O; Morpholide = C1CN(*)CCO1; NMeA = CN[C@@H](C)C(=O)O; Piperidide = C1CCN(*)CC1; Pyrrolidide = C1CCN(*)C1; Ac5c = NC1(C(=O)O)CCCC1; Aze = O=C(O)[C@@H]1CCN1; βAla = NCCC(=O)O; Sar = CNCC(=O)O; Propyl = CCC*

These compounds were tested on Human pancreatic cancer cell line AsPC-1 (G12D mutation Kras) (assay: AsPC-1 cell growth inhibition (AsPC-1 CGI)). Conditions: read-out: AsPC-1 cell growth inhibition, 50% growth inhibitory concentration (IC50 value); 96 hours, CellTiter-Glo, values classified in ranges.
Assay type: cell-based
Protocol: Test compounds were serially dilated with dimethyl sulfoxide, and 200 nL was then dispensed to a U-bottom 96-well plate using Labcyte Echo. […] The cell suspension was dispensed to a. plate containing a test compound at 100 μL per well and incubated at 37° C. in a 5% carbon dioxide gas incubator. 96 hours later, 80 μL of CellTiter-Glo (Promega) was added to each well and fluorescence was measured.
`CC[C@H](C)[C@@H]1NC(=O)[C@H](CC(C)C)N(C)C(=O)C[C@@H](C)NC(=O)[C@H](C(C)C)N(C)C(=O)C2(CCCC2)NC(=O)[C@@H]2CCCN2C(=O)[C@H](CCc2ccc(C(F)(F)F)c(Cl)c2)NC(=O)CN(C)C(=O)[C@H](Cc2cccc(C#N)c2)N(C)C(=O)CN(C)C(=O)CN(C)C1=O` [Compound 975] (cyclo([Ac5c][NMeV][d(β3hA)][NMeL]I[Sar][Sar][NMePhe(3-CN)][Sar][hPhe(3-Cl-4-CF3)]P)) gave an IC50 greater than 500 nM. For `CC[C@H](C)[C@@H]1NC(=O)[C@H](CC(C)C)N(C)C(=O)CCNC(=O)[C@H](C(C)C)N(C)C(=O)C2(CCCC2)NC(=O)[C@@H]2CCCN2C(=O)[C@H](CCc2ccc(C(F)(F)F)c(Cl)c2)NC(=O)CN(C)C(=O)[C@H](CC2CCCCC2)N(C)C(=O)CN(C)C(=O)CN(C)C1=O` [Compound 979] (cyclo([Ac5c][NMeV][βAla][NMeL]I[Sar][Sar][NMeCha][Sar][hPhe(3-Cl-4-CF3)]P)), the IC50 was greater than 500 nM. `CC[C@H](C)[C@@H]1NC(=O)[C@H](CC(F)(F)F)N(C)C(=O)C[C@@H](C(=O)N2CCOCC2)N(C)C(=O)[C@H](C2CCCCC2)N(C)C(=O)C2(CCCC2)NC(=O)[C@@H]2CCCN2C(=O)[C@H](CCc2ccc(C(F)(F)F)c(Cl)c2)NC(=O)CN(C)C(=O)[C@H](Cc2ccc(C(F)(F)F)cc2)N(C)C(=O)CN(C)C(=O)CN(C)C1=O` [Compound 981] ([NMeAbu(4,4,4-F3)]I[Sar][Sar][NMePhe(4-CF3)][Sar][hPhe(3-Cl-4-CF3)]P[Ac5c][NMeChg][NMeD]-Morpholide; lactam N-11) gave an IC50 of no more than 20 nM. `CC[C@H](C)[C@@H]1NC(=O)[C@H](CC(C)C)N(C)C(=O)C[C@@H](C(=O)N(C)C)N(C)C(=O)[C@H]([C@@H](C)CC)N(C)C(=O)[C@H](C(C)C)NC(=O)[C@H](Cc2cscn2)N(C)C(=O)[C@H](CCc2ccc(C(F)(F)F)c(Cl)c2)NC(=O)CN(C)C(=O)[C@H](Cc2ccc(C)cc2)N(C)C(=O)[C@@H]2CCN2C(=O)[C@H](C)N(C)C1=O` [Compound 982] ([NMeL]I[NMeA][Aze][NMePhe(4-Me)][Sar][hPhe(3-Cl-4-CF3)][NMeAla(4-thiazolyl)]V[NMeI][NMeD]-NMe2; lactam N-11) gave an IC50 greater than 500 nM. Compound `CC(C)C[C@H]1C(=O)N[C@@H](CC2CCCCC2)C(=O)N(C)CC(=O)N(C)CC(=O)N(C)[C@@H](CC2CCCCC2)C(=O)N(C)CC(=O)N[C@@H](CCc2ccc(C(F)(F)F)c(Cl)c2)C(=O)N2CCC[C@H]2C(=O)NC2(CCCC2)C(=O)N(C)[C@@H](C(C)C)C(=O)N(C)[C@H](C(=O)N2CCCCC2)CC(=O)N1C` [Compound 986] ([NMeL][Cha][Sar][Sar][NMeCha][Sar][hPhe(3-Cl-4-CF3)]P[Ac5c][NMeV][NMeD]-Piperidide; lactam N-11) has an IC50 greater than 500 nM. With `CCCOC[C@H]1C(=O)N(C)CC(=O)N[C@@H](CCc2ccc(C(F)(F)F)c(F)c2)C(=O)N2CCC[C@H]2C(=O)NC2(CCCC2)C(=O)N(C)[C@@H](C2CCCC2)C(=O)N(C)[C@H](C(=O)N2CCCC2)CC(=O)N(C)[C@@H](CC(C)C)C(=O)N[C@@H]([C@@H](C)CC)C(=O)N(C)[C@@H](C)C(=O)N2CC[C@H]2C(=O)N1C` [Compound 987] ([NMeL]I[NMeA][Aze][NMeS](Propyl)[Sar][hPhe(3-F,4-CF3)]P[Ac5c][NMeGly(cPent)][NMeD]-Pyrrolidide; lactam N-11) the IC50 was no more than 20 nM. Compound `CC[C@H](C)[C@@H]1NC(=O)[C@H](CC(C)C)N(C)C(=O)C[C@@H](C)N(C)C(=O)[C@H](CC2CCCC2)N(C)C(=O)C2(CCCC2)NC(=O)[C@@H]2CCCN2C(=O)[C@H](CCc2ccc(C(F)(F)F)c(Cl)c2)NC(=O)CN(C)C(=O)[C@H](CC2CCCCC2)N(C)C(=O)CN(C)C(=O)CN(C)C1=O` [Compound 991] (cyclo([Ac5c][NMeAla(cPent)][NMedβ3hAla][NMeL]I[Sar][Sar][NMeCha][Sar][hPhe(3-Cl-4-CF3)]P)) has an IC50 greater than 500 nM. `CC[C@H](C)[C@@H]1NC(=O)[C@H](CC(C)C)N(C)C(=O)C[C@@H](C(=O)N(C)C)N(C)C(=O)[C@H](C2CCCC2)N(C)C(=O)[C@H](C)NC(=O)[C@H](C)N(C)C(=O)[C@H](CCc2ccc(C(F)(F)F)c(Cl)c2)NC(=O)CN(C)C(=O)[C@H](CC2CCCCC2)N(C)C(=O)[C@@H]2CCN2C(=O)[C@H](C)N(C)C1=O` [Compound 993] ([NMeL]I[NMeA][Aze][NMeCha][Sar][hPhe(3-Cl-4-CF3)][NMeA]A[NMeGly(cPent)][NMeD]-NMe2; lactam N-11) gave an IC50 greater than 500 nM. `CC[C@H](C)[C@@H]1NC(=O)[C@H](C)N(C)C(=O)C[C@@H](C)NC(=O)[C@H](C(C)C)N(C)C(=O)[C@H](Cc2ccccc2)N(C)C(=O)[C@H](CC(C)C)N(C)C(=O)[C@H](CCc2ccc(C(F)(F)F)c(Cl)c2)NC(=O)CN(C)C(=O)[C@H](Cc2ccc(Cl)cc2)N(C)C(=O)[C@@H]2CCN2C(=O)CN(C)C1=O` [Compound 994] (cyclo([Aze][NMePhe(4-Cl)][Sar][hPhe(3-Cl-4-CF3)][NMeL][NMeF][NMeV][d(β3hA)][NMeA]I[Sar])) was tested, and the IC50 was greater than 500 nM. With `CC[C@H](C)[C@@H]1NC(=O)[C@H](CC(C)C)N(C)C(=O)C[C@@H](C(=O)N2CCCCC2)N(C)C(=O)[C@H](C(C)C)N(C)C(=O)C2(CCCC2)NC(=O)[C@@H]2CCCN2C(=O)[C@H](CCc2ccc(C(F)(F)F)c(Cl)c2)NC(=O)CN(C)C(=O)[C@H](CC2CCCCC2)N(C)C(=O)[C@@H]2CCN2C(=O)[C@H](COCC(=O)NC(C)(C)C)N(C)C1=O` [Compound 998] ([NMeL]I[NMeS](CH2CONHtBu)[Aze][NMeCha][Sar][hPhe(3-Cl-4-CF3)]P[Ac5c][NMeV][NMeD]-Piperidide; lactam N-11) the IC50 was greater than 500 nM.
